# “Also recorded” adds a separate entry of the source. Like-named read-outs stand apart in the source and are kept apart here.
# B1: XuaH (Ruminiclostridium cellulolyticum H10) (protein)
# chain: MAIFQANFFAKTMKRSICFNALIPNDKYQAPDQEIKDEPKGPMKSIYLLHGYSGNHTDWLTWTKIQELSLKYNIAVFMPSGENFFYVDDEEVGAYYGELIGNELVDYTRSTFHLSDKREDTFIGGLSMGGYGAIRNGLKYSERFGRIIALSSALITNQIAGITPDFKGPVADYPYYRRVFGDLDRLLGGDKDPEALIRSLKEKNADIPKIYMACGTEDFLINENRELHEFLVSEKVEHTYIEDSGVHDWKFWNEYIDKGLAWATE
# B2: XuaE (Ruminiclostridium cellulolyticum H10) (protein)
# chain: MKIQNPIIWADMPDPDIIRVGDIYYMVSTTMFVMPGAPILKSKDLYHWELVSYVFNTIEDNDIYQLKNGKTAYGKGQWATSLRFFNGLYYACFVCHDMQKTYIYYTDDIEKSGWERYVINNVFHDMSFLFDNNRSYLIYGNGDIKIVELKDDLSGIKDGGVNQLLFSTPSENIMLRCEGCRAYKINGYYYLLFIEWPNDGNSRRRVVCYRSKDLLGEYDRKILLDDDMEYQNQGIAQGAIIDTPEGEWYSILFQDHGAVGRIPYLLPVSWEDDWPNLGVNEKVPESFEIPFEAYDTKPLIVSDSFNHNENKLDLRWQWNHNPEEDCWSFTEHPGYLRLRTQSLATDILTARNTLTQRTSGPQCAFSVELKTEGMKAGDYAGLVALQGNYGAIGIRADENNLKRIIVSKKGSDGRQIEEEYRLFADSRILIKIEFDFRNSSDIAKFYYSQDGIGWIKLGSDLHMTYTLDLFIGYRIGIFYYSQKAAGGFADFRNFSYESRQ
# What was measured:
# XuaA [1] = molecular target: T1, XuaA (Ruminiclostridium cellulolyticum, UniProt B8I0N3); test: Thermal shift assay (TSA) of XuaA with carbohydrate ligands; assay type: binding; conditions: for Binding to XuaA (in words): screened by TSA, then ITC
# T1 sequence (B8I0N3 entry or part of it): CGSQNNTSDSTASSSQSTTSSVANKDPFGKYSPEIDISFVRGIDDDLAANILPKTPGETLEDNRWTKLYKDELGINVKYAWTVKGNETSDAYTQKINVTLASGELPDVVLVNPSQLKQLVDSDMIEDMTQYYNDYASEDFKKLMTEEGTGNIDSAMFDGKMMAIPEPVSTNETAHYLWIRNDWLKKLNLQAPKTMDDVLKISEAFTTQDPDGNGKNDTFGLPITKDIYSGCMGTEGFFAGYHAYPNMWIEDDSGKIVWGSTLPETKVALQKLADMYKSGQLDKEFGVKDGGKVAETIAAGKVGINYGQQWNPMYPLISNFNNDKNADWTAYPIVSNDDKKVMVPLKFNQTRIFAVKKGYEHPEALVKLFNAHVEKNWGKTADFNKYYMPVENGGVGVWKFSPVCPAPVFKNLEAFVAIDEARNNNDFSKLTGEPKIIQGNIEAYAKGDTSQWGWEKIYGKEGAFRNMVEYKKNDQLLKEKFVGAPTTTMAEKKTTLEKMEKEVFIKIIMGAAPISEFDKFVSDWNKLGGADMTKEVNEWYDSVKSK
# Description: (§1) XOS and AXOS were purchased from Megazyme: A^3X (ref O-A^3X), A^2XX (ref O-A^2XX), A^2,3XX (ref O-A^2,3XX), XA^3XX (ref O-XA^3XX), XA^2,3XX (ref O-XA^2,3XX), XAXXMIX (ref O-XAXXMIX), X2 to X6 (ref O-XBI, O-XTR, O-XTE, O-XPE, O-XHE, respectively) (Fig. 3) (Megazyme). For TSA experiments, monosaccharides, XOS and AXOS were tested at a final concentration of 1 mM or 0.1 mM (for X4, X5, and X6). Experiments were performed with XuaA (8 µM) in 25 mM phosphate buffer pH 7 and SYPRO orange (1/500) (Sigma-Aldrich). Melting curves were monitored from 10 to 90 °C with 0.5 °C increment every 30 s, on CFX96 touch real-time PCR detection system (Bio-Rad, France) and analyzed using the Bio-Rad CFX Maestro 1.1 software.
# XuaD = XuaD (Ruminiclostridium cellulolyticum, UniProt B8I0N6); test: Enzyme activity of XuaD on AXOS (HPAEC-PAD); assay type: biochemical; conditions: for Products released by XuaD: HPAEC-PAD; for Specific activity (IU) of XuaD: substrate 1 mM, 37 °C
# Sequence of XuaD (B8I0N6 entry or part of it): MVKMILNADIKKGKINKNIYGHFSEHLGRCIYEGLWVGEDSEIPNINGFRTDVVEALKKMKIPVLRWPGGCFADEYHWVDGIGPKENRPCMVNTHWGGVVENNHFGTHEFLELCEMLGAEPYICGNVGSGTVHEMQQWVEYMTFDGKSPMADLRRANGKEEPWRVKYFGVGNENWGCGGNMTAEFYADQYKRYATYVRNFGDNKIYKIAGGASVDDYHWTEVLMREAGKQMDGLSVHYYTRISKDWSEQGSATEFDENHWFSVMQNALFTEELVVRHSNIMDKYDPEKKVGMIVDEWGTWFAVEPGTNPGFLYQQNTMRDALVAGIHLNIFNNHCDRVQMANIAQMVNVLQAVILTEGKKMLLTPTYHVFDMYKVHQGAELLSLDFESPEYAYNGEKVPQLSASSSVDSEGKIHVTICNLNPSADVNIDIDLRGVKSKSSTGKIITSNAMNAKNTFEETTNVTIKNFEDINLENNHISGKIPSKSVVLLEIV
# Description: (§2) XuaD, E, F, G (0.01 to 1 µM) were tested with different AXOS and/or XOS at 1 mM with incubation times varying from 5 min to 24 h. Enzymes (10 nM) were incubated at 37 °C for 5 min, kinetic parameters of XuaD were determined with both A^2,3XX and A^2XX, with sugar concentration varying from 0.05 to 8 mM, and XuaE with A^2,3XX with sugar concentration varying from 0.05 to 1 mM (at least 9 concentration point). Substrates and released products were quantified by high performance anion exchange chromatography coupled with pulsed amperometric detection on an ICS-3000 using a PA1 column (Thermo Scientific). Sugars were eluted with the buffers 0.1 M NaOH and 0.5 M sodium acetate + 0.1 M NaOH as the eluants A and B, respectively, using the multistep procedure as follows: isochratic separation (5 min, 95% A + 5% B), separation gradient (8 min, 10–37% B), column wash (2 min, 99% B), and subsequent column equilibration (2.5 min, 95% A + 5% B).
# XuaE = XuaE (Ruminiclostridium cellulolyticum, UniProt B8I0N8); test: Enzyme activity of XuaE on AXOS (HPAEC-PAD); assay type: biochemical; conditions: for Products released by XuaE: HPAEC-PAD; for Specific activity (IU) of XuaE: substrate 1 mM, 37 °C
# Description: as §2
# XuaG = test: Enzyme activity of XuaG on AXOS and XOS (HPAEC-PAD); assay type: biochemical, Ruminiclostridium cellulolyticum; conditions: substrate 1 mM, 37 °C
# Description: as §2
# XuaA [2] = molecular target: T1, XuaA; test: Isothermal titration calorimetry (ITC) of XuaA with ligands; assay type: binding; conditions: 25 °C, 25 mM phosphate buffer pH 7.0
# Description: as §1
# A MicroCal PEAQ-ITC (Malvern, Malvern, UK) was used to determine thermodynamic parameters of the binding at 25 °C in 25 mM phosphate buffer, pH 7.0. The ligands (50–2000 µM) were injected (one injection with 0.4 µL followed by 18 injections of 2 µL) in the cell containing XuaA (5–50 µM) in the same buffer. At least one duplicate was performed.
# XuaF = test: Enzyme activity of XuaF on AXOS and XOS (HPAEC-PAD); assay type: biochemical, Ruminiclostridium cellulolyticum; conditions: substrate 1 mM, 37 °C
# Description: as §2
# [3] = substrate: CC(=O)Oc1cccc2ccccc12; test: Esterase activity of XuaH; assay type: biochemical, Ruminiclostridium cellulolyticum; conditions: other: 37 °C, pH 7, substrate 110 µM to 5.36 mM
# Description: Esterase activity was tested using 1-Naphthyl acetate. Release of 1-Naphthol was monitored at 320 nm during 5 min at 37 °C in 25 mM phosphate buffer pH 7, with substrate final concentration ranging from 110 µM and 5.36 mM, and with XuaH (0.1 µM) or XuaJ (0.01 µM). Concentration of released 1-Naphthol during the first minute of the assay was determined based on 1-Naphthol standard curve.
# [4] = substrate: OC[C@@H]1O[C@@H](O[C@@H]2[C@@H](O[C@@H]3O[C@@H](CO)[C@H](O)[C@H]3O)[C@H](O[C@@H]3CO[C@@H](O[C@@H]4COC(O)[C@H](O)[C@H]4O)[C@H](O)[C@H]3O)OC[C@H]2O)[C@H](O)[C@H]1O; test: Enzyme activity of XuaE on AXOS (HPAEC-PAD); assay type: biochemical, Ruminiclostridium cellulolyticum; conditions: other: 37 °C, substrate 0.05 to 1 mM
# Description: as §2
# [5] = XuaA 8 µM, ligand 1 mM or 0.1 mM (X4, X5, X6), 25 mM phosphate buffer pH 7, mean of at least 2 experiments
# [6] = XuaE versus XuaD on the same substrate
Molecule,TSA ∆T (XuaA [1]; [5]) [°C],Products released by XuaD (XuaD),Specific activity (IU) of XuaD (XuaD),Specific activity (IU) of XuaG (XuaG),Specific activity (IU) of XuaF (XuaF),also measured
"OC[C@@H]1O[C@@H](O[C@@H]2[C@@H](O[C@@H]3O[C@@H](CO)[C@H](O)[C@H]3O)[C@H](O[C@@H]3CO[C@@H](O[C@@H]4COC(O)[C@H](O)[C@H]4O)[C@H](O)[C@H]3O)OC[C@H]2O)[C@H](O)[C@H]1O (stereo partly shown) [A^2,3XX]",13.5,"Products: Ara, X3",IU: 1256.3 ± 50.2 IU/µmol of enzyme,blocks the activity,–,"Products released by XuaE (XuaE): Products: Ara, A^2XX, A^3XX?; Km of XuaE relative to XuaD (fold lower) (XuaE; [6]): 18 fold; kcat of XuaE relative to XuaD (XuaE; [6]): twofold lower; Specific activity (IU) of XuaE (XuaE): IU: 1938.0 ± 109.6 IU/µmol of enzyme; ITC -T∆S (XuaA [2]): 15.1 ± 2.8 kcal/mol; ITC N (sites) (XuaA [2]): 0.796 ± 2.37e-2 sites; Kd (XuaA [2]): 12 ± 4.6 nM"
OC[C@@H]1O[C@@H](O[C@H]2[C@H](O[C@@H]3CO[C@@H](O[C@@H]4COC(O)[C@H](O)[C@H]4O)[C@H](O)[C@H]3O)OC[C@@H](O)[C@@H]2O)[C@H](O)[C@H]1O (stereo partly shown) [A^2XX],6.5,"Products: Ara, X3",IU: 1263.0 ± 46.1 IU/µmol of enzyme,blocks the activity,IU: 202.3 ± 18.7 IU/µmol of enzyme,–
"OC[C@H]1OC(O)[C@H](O)[C@@H](O)[C@@H]1O (stereo partly shown) [G, glucose]",–,–,–,–,–,"ΔTm at 1000 µM (XuaA [1]; pH 7, read-out: TSA ∆T): 0 °C; Binding to XuaA (in words) (XuaA [1]): does not bind"
"OC1OC[C@@H](O[C@@H]2OC[C@@H](O)[C@H](O)[C@H]2O)[C@H](O)[C@H]1O (stereo partly shown) [X2, xylobiose]",0,–,–,–,not active,–
"OC1OC[C@@H](O[C@@H]2OC[C@@H](O[C@@H]3OC[C@@H](O)[C@H](O)[C@H]3O)[C@H](O)[C@H]2O)[C@H](O)[C@H]1O (stereo partly shown) [X3, xylotriose]",0,–,–,IU: 24.5 ± 1.6 IU/µmol of enzyme,IU: 158.7 ± 21.1 IU/µmol of enzyme,–
OC1OC[C@@H](O[C@@H]2OC[C@@H](O[C@@H]3OC[C@@H](O[C@@H]4OC[C@@H](O)[C@H](O)[C@H]4O)[C@H](O)[C@H]3O)[C@H](O)[C@H]2O)[C@H](O)[C@H]1O (stereo partly shown) [X4],0,–,–,IU: 23.3 ± 0.5 IU/µmol of enzyme,IU: 87.2 ± 7.6 IU/µmol of enzyme,–
OC1OC[C@@H](O[C@@H]2OC[C@@H](O[C@@H]3OC[C@@H](O[C@@H]4OC[C@@H](O[C@@H]5OC[C@@H](O)[C@H](O)[C@H]5O)[C@H](O)[C@H]4O)[C@H](O)[C@H]3O)[C@H](O)[C@H]2O)[C@H](O)[C@H]1O (stereo partly shown) [X5],–,–,–,IU: 6.2 ± 0.5 IU/µmol of enzyme,IU: 25.3 ± 0.7 IU/µmol of enzyme,"ΔTm at 100 µM (XuaA [1]; pH 7, ligand 100 µM, Additional file 1, read-out: TSA ∆T): 0 °C"
"OC1OC[C@@H](O[C@@H]2OC[C@@H](O[C@@H]3OC[C@@H](O[C@@H]4OC[C@@H](O[C@@H]5OC[C@@H](O[C@@H]6OC[C@@H](O)[C@H](O)[C@H]6O)[C@H](O)[C@H]5O)[C@H](O)[C@H]4O)[C@H](O)[C@H]3O)[C@H](O)[C@H]2O)[C@H](O)[C@H]1O (stereo partly shown) [X6, Xylohexaose]",0,–,–,–,–,"TSA ∆T (XuaA [1]; ligand 100 µM, Additional file 1): 0 °C"
"O=C[C@H](O)[C@@H](O)[C@H](O)CO [X, xylose]",–,–,–,–,–,"ΔTm at 1000 µM (XuaA [1]; pH 7, ligand 1 mM, Additional file 1, read-out: TSA ∆T): 0 °C; Binding to XuaA (in words) (XuaA [1]): does not bind; also recorded: failed to bind"
"OC[C@@H]1O[C@@H](O[C@@H]2[C@@H](O[C@@H]3O[C@@H](CO)[C@H](O)[C@H]3O)[C@H](O[C@@H]3CO[C@@H](O[C@@H]4COC(O)[C@H](O)[C@H]4O)[C@H](O)[C@H]3O)OC[C@H]2O[C@@H]2OC[C@@H](O)[C@H](O)[C@H]2O)[C@H](O)[C@H]1O (stereo partly shown) [XA^2,3XX]",14,"Products: Ara, X4",IU: 1.5 ± 0.03 IU/µmol of enzyme,IU: 20.3 ± 0.2 IU/µmol of enzyme,IU: 29.7 ± 2.8 IU/µmol of enzyme,"Products released by XuaE (XuaE): Products: Ara, XA^2XX, XA^3XX; Specific activity (IU) of XuaE (XuaE): IU: 1927.2 ± 100.4 IU/µmol of enzyme; ITC -T∆S (XuaA [2]): 4.8 ± 0.5 kcal/mol; ITC N (sites) (XuaA [2]): 1.05 ± 5.67e-2 sites; Kd (XuaA [2]): 15.9 ± 0.1 nM"
OC[C@@H]1O[C@@H](O[C@@H]2[C@@H](O)[C@H](O[C@@H]3CO[C@@H](O[C@@H]4COC(O)[C@H](O)[C@H]4O)[C@H](O)[C@H]3O)OC[C@H]2O[C@@H]2OC[C@@H](O)[C@H](O)[C@H]2O)[C@H](O)[C@H]1O (stereo partly shown) [XA^3XX],11.0,"Products: Ara, X4",IU: 1218.9 ± 38.5 IU/µmol of enzyme,IU: 21.2 ± 0.2 IU/µmol of enzyme,IU: 166.7 ± 12.8 IU/µmol of enzyme,"Products released by XuaE (XuaE): Products: Ara, X4; ITC -T∆S (XuaA [2]): 11.6 ± 1.2 kcal/mol; ITC N (sites) (XuaA [2]): 0.652 ± 2.83e-3 sites; Kd (XuaA [2]): 40.4 ± 9.3 nM"
B1,–,–,–,–,–,Km [3]: Km: 3.5 ± 1.1 mM; kcat [3]: kcat: 5435.7 ± 846.4 min^−1; kcat/Km [3]: kcat/Km: 1628.1 ± 295.7 min^−1 mM^−1
B2,–,–,–,–,–,Km [4]: Km 0.1 ± 0.003 mM; kcat [4]: kcat 2253.5 ± 142.1 min^−1; kcat/Km [4]: kcat/Km 23137.8 ± 1355.0 min^−1 mM^−1

# From paper PMC9675976, “Selfish uptake versus extracellular arabinoxylan degradation in the primary degrader Ruminiclostridium cellulolyticum, a new string to its bow” (Biotechnology for Biofuels and Bioproducts, 2022)
